Results as given in US20060204443A1, “Methods for tumor treatment using dendrimer conjugates” (The Government of the USA as represented by the Secretary …, priority 2005, published 2006).
“Also recorded” adds a separate entry of the source.

Key:
[1] = system: deep lymphatic system (lymph nodes, thoracic duct); assay: Whole-body dynamic 3D-micro-MRL after intracutaneous injection, normal mice (Examples 2, 3); type: in vivo; settings: for Number of Mice in Which the Thoracic Duct was Visualized/Number of Mice Examined: Normal Mice, 0.1 μmolGd intracutaneously; for Axillary lymph node-to-background (muscle) signal intensity ratio / Axillary lymph node-to-liver signal intensity ratio: all time points examined; for Axillary lymph node-to-background (muscle) signal intensity ratio: FIG. 11A; for Axillary lymph node-to-liver signal intensity ratio: FIG. 11B
Protocol: (§1) The mice were anesthetized with 1.15 mg sodium pentobarbital (Dainabot, Osaka, Japan) by intraperitoneal injection, and then injected intracutaneously with 0.1 μmolGd of PAMAM-G8, DAB-G5, PAMAM-G4, Gadomer-17, or GPDM into four middle phalanges in all four extremities. Dynamic micro-MR images were obtained using a 1.5-Tesla superconductive magnet unit (Signa LX, General Electric Medical System, Milwaukee, Wis.) with a round birdcage type coil of 3 cm diameter fixed by a custom-made coil holder. Four to eight female mice (7 weeks old, 18-21 g body weight) in each group were used and each contrast agent was prepared at least three separate times for these imaging studies. The mice were wrapped with gauze to stabilize their body temperature and were placed at the center of the coils.
(§2) A 3D-fast spoiled gradient echo (3D-fastSPGR (efgre3d package; Signa Horizon, GE); repetition time/echo time 28.5/7.9 msec; inversion time 65 msec; 31.2 kHz, flip angle 30°, four excitations; 40 slice-encoding steps; scan time 7 min 36 seconds) with chemical shift fat-suppression was used 10, 20, 30, and 45 min after injection of the contrast agents. The coronal images were reconstructed with 0.6-mm section thickness at every 0.3-mm. The field of view was 6×3 cm and the size of the matrix was 512×256. The intensities of the regions of interest (for example, a whole axillary lymph node, and the liver) were measured, and then the time-intensity curves analyzed. The data were expressed as the axillary lymph node-to-muscle and the axillary lymph node-to-liver ratios. The slice data were processed into 3D images using the MIP method with the same window and level (window 3500 and level 2300) (Advantage Windows, General Electric Medical System). Two board-certified radiologists separately read a set of stereo views of 3D-MRL for all studies, and estimated the visualization of the thoracic duct. After imaging, the mice were sacrificed by carbon dioxide inhalation.
In this example, the PAMAM-G8 contrast agent is compared to GPDM. PAMAM-G8 was prepared as described in Example 2, and GPDM was purchased (Schering AG, Berlin, Germany). Animal models, administration of the contrast agents, and 3D-micro-MRL were as described in Example 2.

[2] = system: lymphatic vessels and lymph nodes of disease model mice; assay: 3D-micro-MRL in lymphatic disease models (Concanavalin A lymphangitis, IL-15 transgenic); type: in vivo; settings: for Visualization of lymph nodes in lymphoproliferation/lymphoma: 45 minutes after injection
Protocol: To generate a lymphangitis model, Concanavalin A ([…]) (Sigma, St. Louis, Mo.) was injected intravenously into C57BL6 mice (NCI, Frederick, Md.) 24 hours before MRI was performed.
Eight- to 10-month old IL-15 transgenic mice (on a C57BL6 background) were used as a chronic lymphoproliferative/neoplastic disease model because they manifested selective expansion of NK, CD8^+NK-T, γδIELs, and CD8 T cells in the periphery. Most of the lymph nodes collected from an aged IL-15 transgenic mouse were enlarged in size. The lesion of proliferated monoclonal lymphocytes often involved the lung and the subcutaneous lymphatic tissue.
as §1, §2

[3] = system: axillary lymph nodes and their lymphatic vessels; assay: Dynamic 3D-MR lymphangiography, effect of contrast agent size (Example 4); type: in vivo, athymic nu/nu mice; settings: for Visualization of axillary lymph nodes and their lymphatic vessels: 6-36 minutes post-injection into mammary gland; for Depiction of lymphatic vessels / Signal intensity within the axillary lymph nodes in comparison to G6 and G8 / Signal intensity of adjacent muscle in comparison to G6 and G8: mouse, in vivo; for Signal intensity within the axillary lymph node (enhancement ratio, lymph node / adjacent muscle): 0.15 μmolGd/5 μL
Protocol: Mice were anesthetized with 1.15 mg sodium pentobarbital (Dainabot, Osaka, Japan) by intraperitoneal injection. Then 0.15 μmolGd/5 μL of all nano-size contrast agents or 0.45 μmolGd/5 μL of Gd-[DTPA]-dimeglumine were injected into normal mammary glands or mammary tissue surrounding a tumor. Dynamic MR images were obtained using a 1.5-Tesla superconductive magnet unit (Signa LX, General Electric Medical System, Milwaukee, Wis.) with a birdcage type coil of 3 cm diameter fixed by a custom-made coil holder. The mice were wrapped with gauze to conserve their body temperature and were placed at the center of the coils.
In order to evaluate the effect of contrast agent molecular size on the ability to visualize the lymphatics and lymph nodes of athymic nu/nu mice, thirty five non-tumor bearing nu/nu mice were divided into seven groups (n=5). The mice were evaluated with 3D-fast spoiled gradient echo (3D-fastSPGR (efgre3d package; Signa Horizon, GE); repetition time/echo time 19.2/7.2 msec; inversion time 47 msec; bandwidth 31.2 kHz, flip angle 30°, 4 excitations; 36 slice encoding steps; scan time 4 minutes 49 seconds) with chemical shift fat-suppression at 6, 12, 18, 24, 30, and 36 minutes post-injection of each contrast agent. The coronal images were reconstructed with 0.6-mm section thickness every 0.3-mm. The field of view was 8×4 cm and the size of the matrix was 512×256. The slice data were processed into 3D images using the maximum intensity projection (MIP) method with the same window and level (window 3500 and level 2100) (Advantage Windows, General Electric Medical System). The enhancement ratio was calculated by taking the average signal intensity in the axillary lymph node and dividing it by the signal intensity in the adjacent muscle.

[4] = in vivo
[5] = Example 2, normal mice, 10-45 min after injection

Substance | Number of Mice in Which the Thoracic Duct was Visualized/Number of Mice Examined ([1]; 10 min) | Number of Mice in Which the Thoracic Duct was Visualized/Number of Mice Examined ([1]; 20 min) | Number of Mice in Which the Thoracic Duct was Visualized/Number of Mice Examined ([1]; 30 min) | Number of Mice in Which the Thoracic Duct was Visualized/Number of Mice Examined ([1]; 45 min) | Axillary lymph node-to-background (muscle) signal intensity ratio [1] | Axillary lymph node-to-liver signal intensity ratio [1] | Visualization of lymph nodes in lymphoproliferation/lymphoma ([2]; IL-15 transgenic mice, FIG. 13) | Visualization of axillary lymph nodes and their lymphatic vessels [3] | Depiction of lymphatic vessels [3] | Signal intensity within the axillary lymph nodes in comparison to G6 and G8 [3] | Visualization of deep lymph nodes [1, 5] | further results
DAB-Am-128-(Gd-1B4M)128 dendrimer conjugate [DAB-G5] | 3/5 | 2/5 | 0/5 | 0/5 | significantly higher than that obtained with either PAMAM-G8 or PAMAM-G4 | nearly equivalent, but were significantly higher than that measured with GPDM | considerable multiple lymph node swellings with central filling defects | superior to the G2 and G4 PAMAM dendrimers; also recorded: better contrast than PAMAM dendrimer-based agents of similar sizes | neither agent depicted lymphatic vessels | lower signal intensities | – | –
Gadomer-17 [reference compound] | 2/5 | 2/5 | 1/5 | 1/5 | significantly higher than that acquired with GPDM | nearly equivalent, but were significantly higher than that measured with GPDM | – | superior to the G2 and G4 PAMAM dendrimers; also recorded: better contrast than PAMAM dendrimer-based agents of similar sizes | neither agent depicted lymphatic vessels | lower signal intensities | allowed visualization of the deep lymph nodes, albeit not as clearly and brightly as the dendrimer-based agents | Clearance from the body ([4]; iv): rapidly cleared from the body; Signal intensity of adjacent muscle in comparison to G6 and G8 [3]: significantly higher than those measured with G6 and G8
PAMAM-G4D-(Gd-1B4M)64 dendrimer conjugate | 4/5 | 4/5 | 3/5 | 2/5 | significantly higher than that measured with Gadomer-17 and GPDM | significantly higher than that acquired with PAMAM-G8, DAB G-5, or Gadomer-17 | – | able to depict the lymph nodes only faintly and then only up to 12 minutes post-injection | – | – | – | Survival in the blood circulation [4]: short survival in the blood circulation due to a rapid renal excretion without significant retention in other organs; Signal intensity of adjacent muscle in comparison to G6 and G8 ([3]; listed as G4): significantly higher than those measured with G6 and G8; also recorded: higher signal in the adjacent muscle; Signal intensity within the axillary lymph nodes in comparison to G6 and G8 ([3]; listed as G4): lower signal intensities; also recorded: significantly lower signal
PAMAM-G7D-(Gd-1B4M)1024 dendrimer conjugate [PAMAM-G8] | 10/10 | 10/10 | 10/10 | 10/10 | significantly higher than that measured with Gadomer-17 and GPDM | nearly equivalent, but were significantly higher than that measured with GPDM | considerable multiple lymph node swellings with central filling defects | visualized at all time points in all 10 mice | – | – | enabled most of the deep lymph nodes to be visualized | Visualization of lymphatic vessels ([1]; Example 2): better visualized with PAMAM-G8 compared to all other agents examined; Visualization by a radiologist of the thoracic duct ([1]; Example 2, all times after administration): in all mice at all times after administration; Visualization of deep lymph nodes ([1]; Example 3, FIG. 15): most deep lymph nodes throughout the body were visualized; Visualization of the thoracic duct ([1]; Example 3, FIG. 15): visualized in all six mice; Visualization of lymphatic vessels in lymphangitis ([2]; Concanavalin A lymphangitis model, FIG. 12): demonstrated the remarkable dilation of the lymphatic vessels throughout the body, especially in the liver; Visualization of dilation of lymphatic vessels ([2]; IL-15 transgenic mice, FIG. 13): best visualized with PAMAM-G8; Leakage out of the lymphatic vessels [4]: minimal leakage out of the lymphatic vessels; Signal intensity within the axillary lymph node (enhancement ratio, lymph node / adjacent muscle) ([3]; 6 minutes post-injection): 1.7±0.2; Signal intensity within the axillary lymph node (enhancement ratio, lymph node / adjacent muscle) ([3]; 12 minutes post-injection): 2.3±0.2
